Columns and labels:
Format in all cases: in vivo
Anopheles gambiae = test: Warm Body assay, mosquito landings on treated warm body
How it was run: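 Compounds in ethanol, 100 μL at various concentrations, applied to a sandblasted glass dish (28.3 cm^2) covering a warm body simulating a host. Mosquito landings counted per stimulus against an ethanol-only control to gauge repellence.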

Aedes aegypti [1] = test: Double (dual) chamber assay, spatial repellence; details: after 30 min of injection
Method: FIG. 1: Percentage of mosquitoes Aedes aegypti escaping over time the chamber treated with a stimulus. The four stimuli were the solvent propan-1,2-diol (grey triangles and dotted line), N,N-diethyl-meta-toluamide (medium grey diamonds), 2,6-dimethoxy-4-methylphenol (light gray squares) and 1,2,3-trimethoxy-5-propylbenzene (black circles). Each stimulus was injected during 40 min thanks to a forced evaporation system in the treated chamber containing the mosquitoes, causing their movement toward the untreated refuge chamber. Each point represents the mean number of mosquitoes in the untreated chamber (n=57, 6, 4 and 4 respectively)±SD at 10 min intervals.
The goal of this assay was to reproduce at a smaller scale the validation test for spatial repellent as described in WHO (2013; ISBN 978 92 4 150502 4).
The assay consists of a transparent cage (1200×755×700 mm; ˜0.63 m^3) covered by white paper. This cage is divided in two chambers of equal dimensions by a plasticized paper wall with square opening (200×200 mm) situated in the middle of the wall. At the beginning of the experiment, about 40 two-weeks old female Aedes aegypti mosquitoes are placed in the right chambers. Once the mosquitoes are settled inside this chamber (>5 min), the door between the chambers is opened. Then the stimulus is introduced into the mosquito chamber through a L-shape Teflon tube (40 mm) placed in the middle of the right Plexiglas wall. The stimulus is dispensed thanks to a Forced Evaporation System (Chappuis et al, 2015, DOI: 10.1021/acs.est.5b00692) at a rate of 0.1 mL/min in a nitrogen flow of 1 L/min, blended in a humid air flow of 9L/min before being carried to the L-shape Teflon tube. An air sucking system (˜150 L/min) is placed above the wall opening, between the two chambers (100 mm Ø), preventing the untreated chamber from being contaminated by the stimulus and limiting the stimulus accumulation in the treated chamber. […] Ten, 20, 30 and 40 minutes after the start of the stimulus injection, the number of mosquitoes that have moved to the untreated chamber is manually counted.

Aedes aegypti [2] = test: Arm-in-cage test on human volunteers; details: arm treated with 20%, three human volunteers
Method: The controlling effect, repellence & spatial repellence, according to the present invention is also determined according to an arm in the box method adapted from the WHO Guidelines for efficacy testing of mosquito repellents for human skin (WHO/CDS/NTD/WHOPES/2009.4). The readiness of 100 hungry female mosquitoes A. aegypti to a test substance is assessed by comparing the results of an untreated arm to a treated in when inserted into the cage (40×40×40 cm) for 30 seconds (negative control) three times. Further information is provided in the accompanying examples.
The Arm in the box method was adapted from the WHO Guidelines for efficacy testing of mosquito repellents for human skin (WHO/CDS/NTD/WHOPES/2009.4). The readiness of 100 hungry female mosquitoes A. aegypti to probe is assessed by inserting the untreated arm of human volunteers into the cage (40×40×40cm) for 30 seconds (negative control) in order to determine probing activity. Then, the product is applied onto the skin of the forearm of the human volunteer (1 mL per 600 cm^2) and after 5 minutes, this arm is inserted into the cage and exposed for 3 minutes. The assay take place in temperature (27±2° C.) and humidity (80±10% RH) regulated room on three different human volunteers.

Aedes aegypti [3] = test: Warm Body assay, mosquito landings on treated warm body; details: Aedes aegypti, read-out: Percentage of repellence of mosquitoes Aedes aegypti landing on the warm body
How it was run: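 Compounds in ethanol (100 μL, various concentrations) were applied to a sandblasted glass dish covering the warm body (28.3 cm^2), with ethanol as control. Landings were counted automatically from 30 non-blood-fed, sugar-fed Aedes aegypti Rockefeller females aged 5–10 days, under 150 lux.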

With `CCCc1cc(OC)c(OC)c(OC)c1` [compound 1975, 1,2,3-trimethoxy-5-propylbenzene] the pest or weed control at 3.2 µg/mL (Anopheles gambiae; Anopheles gambiae, 0.0032 mg/mL (Table 5), read-out: Percentage of repellence of mosquitoes Anopheles gambiae landing on the warm body) was 0%, the pest or weed control at 7.1 µg/mL (Anopheles gambiae; Anopheles gambiae, 0.0071 mg/mL (Table 5), read-out: Percentage of repellence of mosquitoes Anopheles gambiae landing on the warm body) was 5% and the pest or weed control at 16 µg/mL (Anopheles gambiae; Anopheles gambiae, 0.016 mg/mL (Table 5), read-out: Percentage of repellence of mosquitoes Anopheles gambiae landing on the warm body) was 78%. It also gave a pest or weed control at 53 µg/mL (Anopheles gambiae; Anopheles gambiae, 0.053 mg/mL (Table 5), read-out: Percentage of repellence of mosquitoes Anopheles gambiae landing on the warm body) of 23%, a pest or weed control at 80 µg/mL (Anopheles gambiae; Anopheles gambiae, 0.08 mg/mL (Table 5), read-out: Percentage of repellence of mosquitoes Anopheles gambiae landing on the warm body) of 0% and a pest or weed control at 400 µg/mL (Anopheles gambiae; Anopheles gambiae, 0.4 mg/mL (Table 5), read-out: Percentage of repellence of mosquitoes Anopheles gambiae landing on the warm body) of 94%. It also gave a pest or weed control at 2000 µg/mL (Anopheles gambiae; Anopheles gambiae, 2 mg/mL (Table 5), read-out: Percentage of repellence of mosquitoes Anopheles gambiae landing on the warm body) of 95%, a pest or weed control at 4470 µg/mL (Anopheles gambiae; Anopheles gambiae, 4.47 mg/mL (Table 5), read-out: Percentage of repellence of mosquitoes Anopheles gambiae landing on the warm body) of 100% and a pest or weed control at 10000 µg/mL (Anopheles gambiae; Anopheles gambiae, 10 mg/mL (Table 5), read-out: Percentage of repellence of mosquitoes Anopheles gambiae landing on the warm body) of 98%. The repulsion (Anopheles gambiae; all doses ≥0.04% applied on the Warm Body (Table 5)) was greater than 90%, the “plateau of mosquitoes moved to the untreated chamber” value (Aedes aegypti [1]) was roughly 54% and the “reduction of the number of mosquito Aedes aegypti landings” value (Aedes aegypti [2]) was 99.4%±0.4%. The pest or weed control at 3.2 µg/mL (Aedes aegypti [3]; 0.0032 mg/mL (Table 1)) was 33%, the pest or weed control at 7.1 µg/mL (Aedes aegypti [3]; 0.0071 mg/mL (Table 1)) was 10% and the pest or weed control at 16 µg/mL (Aedes aegypti [3]; 0.016 mg/mL (Table 1)) was 0%. It also gave a pest or weed control at 35.7 µg/mL (Aedes aegypti [3]; 0.0357 mg/mL (Table 1)) of 66%, a pest or weed control at 53 µg/mL (Aedes aegypti [3]; 0.053 mg/mL (Table 1)) of 30% and a pest or weed control at 80 µg/mL (Aedes aegypti [3]; 0.08 mg/mL (Table 1)) of 93%. For the same compound, the pest or weed control at 119 µg/mL (Aedes aegypti [3]; 0.119 mg/mL (Table 1)) was 36%, the pest or weed control at 178 µg/mL (Aedes aegypti [3]; 0.178 mg/mL (Table 1)) was 83% and the pest or weed control at 267 µg/mL (Aedes aegypti [3]; 0.267 mg/mL (Table 1)) was 87%. It also gave a pest or weed control at 400 µg/mL (Aedes aegypti [3]; 0.4 mg/mL (Table 1)) of 94%, a pest or weed control at 598 µg/mL (Aedes aegypti [3]; 0.598 mg/mL (Table 1)) of 99% and a pest or weed control at 890 µg/mL (Aedes aegypti [3]; 0.89 mg/mL (Table 1)) of 95%. The pest or weed control at 2000 µg/mL (Aedes aegypti [3]; 2 mg/mL (Table 1)) was 96%, the pest or weed control at 4470 µg/mL (Aedes aegypti [3]; 4.47 mg/mL (Table 1)) was 98% and the pest or weed control at 10000 µg/mL (Aedes aegypti [3]; 10 mg/mL (Table 1)) was 96%.
